Assay results reported in US20230235286A1, “MRNA TRANSFECTION OF IMMUNE CELLS” (Carisma Therapeutics Inc., priority 2020, published 2023).

Assays:
human macrophages [1] = test: M1/M2 marker expression on CAR macrophages by flow cytometry; type: cell-based; settings: mRNA transfected CAR macrophages
Excerpt: IFN containing media was washed off after the indicated time. IFN-primed CAR macrophages were used for further analysis.
(§1) M1/M2 markers on primary human macrophages were detected with the following panel: Anti-CD11B PE (Biolegend, 301306), Anti-CD80 BV605 (Biolegend, 305225), Anti-CD86 BV711 (Biolegend, 305440), Anti CD206 BV421 (Biolegend, 321126), Anti CD163 APC-CY7 (Biolegend, 333622), anti HLA-DR BV785 (Biolegend, 307642), Anti HLA ABC PE/CY7 (Biolegend, 311430) and Live/Dead Fixable Aqua Dead Cell Stain Kit. Cytokine production (IL12, IFN-γ, TNF-α, IL6, IL8, IL1b, MCP-1, IL10, IL4, IL13, and other human cytokines) was evaluated in supernatant collected from macrophages (control or CAR) treated as described below using the MSD instrument per manufacturers recommendations (Meso Scale Discovery). In some cases, macrophages were co-cultured with antigen-bearing target cells at indicated effector to target ratios.
(§2) Human macrophages were electroporated with HER2 CAR mRNA comprising m6AGCap1 and PsU modifications. Cells were cultured with cytokines that induce an M1 phenotype such as IFN-alpha, IFN-beta, IFN-gamma, IFN-gamma plus lipopolysaccharide (LPS), TNF-alpha, IL-6 or a STING ligand (STING-L) for up to 48 hours and then cytokines were washed off and fresh media was added. CAR expression and M1 marker expression were measured on days 2 and 7 after transfection. Fluorescent labeled HER2+ breast cancer cells (CRL2351) were co-cultured with HER2 CAR macrophages two days after the macrophages were transfected. Cancer cell growth was monitored via its fluorescence on an Incucyte live imaging microscope every four hours. The Effector (CAR macrophage) to Target (cancer cell) ratio was 5:1.
Human macrophages were electroporated with 300 nM CAR mRNA comprising m6AGCap1 and PsU modifications. Cells were cultured with 20 ng/mL IFNs for 24 hours and then the cells were washed to remove cytokines. CAR expression was detected by Flow Cytometry (Attune) on day 2 after transfection. Cells were then co-cultured with a Nuc-Light labeled, HER2+ breast cancer cell line (CRL2351) at the Effector to Target ratio of 3:1. Cancer cell growth was monitored via its fluorescence on an Incucyte live imaging microscope. CAR expression and M1 markers in macrophages were detected by Flow Cytometry (Attune) on day 7 after transfection.

human macrophages [2] = test: CAR expression on macrophages by flow cytometry; type: cell-based; settings: two days after transfection, 20 ng/mL IFNs for 24 hours
human macrophages [3] = test: Cytokine secretion of CAR macrophages co-cultured with HER2+ breast cancer cells (MSD); type: cell-based; settings: supernatant 48 hours after co-culture, E:T 3:1
Excerpt: as §1
Human macrophages were electroporated with 150 nM HER2 CAR mRNA comprising m6AGCap1 and PsU modifications. HER2+ breast cancer cells (CRL2351) were co-cultured with CAR macrophages after the macrophages were transfected with the CAR mRNA at an Effector (CAR macrophage) to Target (cancer cell) ratio of 3:1. Supernatant was collected 48 hours after the cancer cells and macrophages were co-cultured and cytokine levels were measured using a Meso Scale Discovery (MSD) instrument.

human macrophages [4] = test: mCherry expression in transfected macrophages with IFN-γ, sunitinib or ABCE1 (Incucyte); type: cell-based; settings: cultured one day with different doses of IFN-γ
Description: The transfection efficiency, persistence of expression, and intensity of expression of the fluorescent reporter gene mCherry in human monocytes or macrophages was evaluated using real time live microscopy on the Incucyte (Sartorius) for the indicated period of time.
Macrophages were treated with 0-10 µM sunitinib (an RNAse-L inhibitor) for 2 hours prior to mRNA electroporation or transfection. The level of expression and persistence of expression of the encoded transgene was assessed using methods described above.
Human macrophages were transfected with mCherry mRNA comprising m6AGCap1 and PsU or N1mPsU modifications and were then cultured for one day with different doses of IFN-γ. mCherry expression was monitored on an Incucyte live imaging microscope.
In order to determine whether an RNaseL inhibitor could rescue IFN-γ-induced instability of transfected mRNA, human macrophages were treated with 1 µM sunitinib (an RNaseL inhibitor) two hours prior to the transfection of mCherry mRNA comprising m6AGCap1 and PsU modifications. Transfected cells were then cultured for one day with different dosages of IFN-γ. mCherry expression was monitored on an Incucyte live imaging microscope.
The effect of another RNaseL inhibitor (RLI or ABCE1) was also tested to further validate the concept. […]

human macrophages [5] = test: Viability of macrophages electroporated or transfected with CAR mRNA (FACS); type: cell-based; settings: two days after transfection, 20 ng/mL IFNs for 24 hours
Description: as §2, with “The Effector (CAR macrophage) to Target (cancer cell) ratio was 5:1.” left out
Five different mRNA modifications were also tested to determine if interferon treatment differentially affected macrophages transfected with mRNA comprising different modifications. […] CAR expression and M1 markers were detected by Flow Cytometry (Attune) on day four after electroporation. […] Cancer cell growth was monitored via its fluorescence on an Incucyte live imaging microscope every four hours.
Human macrophages were electroporated with 300 nM CAR mRNA comprising m6AGCap1 and PsU modifications. […] CAR expression was detected by Flow Cytometry (Attune) on day 2 after transfection. […] Cancer cell growth was monitored via its fluorescence on an Incucyte live imaging microscope. […]

[6] = tested on: primary human macrophages; test: M1 and M2 marker expression after priming with CD40L, 4-1BB or 4-1BBL; type: cell-based; settings: macrophages transfected with CAR mRNA, 3 days
Description: (§3) To generate Her2-Zeta CAR expressing macrophages, primary human macrophages were suspended in EP buffer (MaxCyte) containing 300 nM mRNA (TriLink) at a concentration of 90×10^6 cells/mL. 100 µL of cell mixture was added to an electroporation cassette (OC 100x2; MaxCyte) and electroporated using the Experimental T cell 1 setting. Cells were removed from the cassette, plated in 3 mL of TexMACS media (Miltenyi Biotech) containing 20% FBS (Gibco) on UpCell plates (Thermo Scientific), and incubated overnight at 37° C. and 5% CO2.
(§4) Recombinant CD40 ligand (Peprotech), 4-1BB ligand (Enzo Life Sciences), and 4-1BB receptor (Peprotech) were re-suspended in molecular grade water to a stock concentration of 100 µg/mL. Stock solution was then used to create working solutions in PBS ranging from 2 -0.002 µg/mL. 100 µL of working solution was added to wells in a 96-well plate and left at room temperature for 4 hours.
For detection of cell surface proteins, macrophages were plated onto wells coated with agonist molecules in a final volume of 200 µL TexMACS media + 10% FBS + 10 ng/mL GM-CSF and incubated for 3 days at 37° C. and 5% CO2. Cells were incubated in 300 µL Accutase (Sigma) for 30 min and transferred to 96-well round bottom plate for staining. Cells were incubated in FACS buffer containing 20 µg/mL Her2-His for 20 min at RT, followed by incubation in Human TruStain FcX for 10 min at RT. […]

[7] = tested on: CRL-2351 cells expressing nuclear GFP; test: Tumor killing by macrophages and CAR macrophages primed on plates coated with CD40L, 4-1BB or 4-1BBL; type: cell-based, human; settings: plate-coated protein
Description: as §3, §4
Plates were removed from the incubator and left at room temperature for 30 minutes. Cells were detached from plate, counted using the NC-200 automated cell counter (Chemomtech), and re-suspended in TexMACS media with 10% FBS. […] Cell lysis was detected using the Incucyte (Essen Bioscience). Tumor cell death was calculated by integrated GFP intensity per well relative to time 0.

Molecule: IFN-γ: recombinant human IFN-γ (peprotech)
- M1 phenotype based on CD86 expression (human macrophages [1]): induction of an M1 phenotype
- M2 markers based on CD163 expression (human macrophages [1]): reduction of M2 markers
- CAR expression (human macrophages [2]): very high except in macrophages that had been treated with IFN-γ
- cytokine secretion (human macrophages [3]): increased secretion of the cytokines IL-6, IL-8 and TNFα
- mCherry mRNA expression (human macrophages [4]): reduced mCherry mRNA expression

Molecule: IFN-α
- M1 phenotype based on CD86 expression (human macrophages [1]): induction of an M1 phenotype
- M2 markers based on CD163 expression (human macrophages [1]): reduction of M2 markers
- cytokine secretion (human macrophages [3]): increased secretion of the cytokines IL-6, IL-8 and TNFα

B1: IFN-γ: recombinant human IFN-γ (peprotech) (protein, UniProt P01579 24-161, looked up)
Interferon gamma: QDPYVKEAENLKKYFNAGHSDVADNGTLFLGILKNWKEESDRKIMQSQIVSFYFKLFKNFKDDQSIQKSVETIKEDMNVKFFNSNKKKRDDFEKLTNYSVTDLNVQRKAIHELIQVMAELSPAAKTGKRKRSQMLFRG
- CAR macrophage viability (human macrophages [5]): very high except in macrophages that had been treated with IFN-γ

B2: CD40L: Recombinant CD40 ligand (Peprotech) (protein, UniProt P29965 113-261, looked up)
CD40 ligand, soluble form: MQKGDQNPQIAAHVISEASSKTTSVLQWAEKGYYTMSNNLVTLENGKQLTVKRQGLYYIYAQVTFCSNREASSQAPFIASLCLKSPGRFERILLRAANTHSSAKPCGQQSIHLGGVFELQPGASVFVNVTDPSQVSHGTGFTSFGLLKL
- M1 phenotype (M1 and M2 markers) [6]: induced an M1 phenotype
- tumor killing ability of macrophages and CAR macrophages [7]: significantly improved the tumor killing ability
